Test results published in PMC10916402, “Meropenem-ANT3310, a unique β-lactam-β-lactamase inhibitor combination with expanded antibacterial spectrum against Gram-negative pathogens including carbapenem-resistant Acinetobacter baumannii” (Antimicrobial Agents and Chemotherapy, 2024).
Converted amounts (≈) assume the structure as drawn. Like-named read-outs stand apart in the source and are kept apart here.

Tests used:
[1] = tested on: OXA-producing Enterobacterales (OXA-CRE); test: organism not typed; format: cell-based
Protocol: (§1) All isolates were randomly selected from the frozen culture collection of IHMA collected in 2018 and 2019. Matrix-assisted laser desorption ionization-time of flight mass spectrometry was used to confirm the identity of the organisms tested (Bruker Daltonics, Bremen, Germany).
(§2) MICs for all antimicrobial agents were determined at IHMA by broth microdilution in accordance with both CLSI ([17]) and EUCAST ([18]) guidelines. Microtiter panels were prepared by IHMA and stored at −70°C in cation-adjusted Mueller Hinton broth (CAMHB) (Becton Dickinson). Iron-depleted CAMHB was used to test cefiderocol. Panels containing ANT3310 were prepared fresh on the day of testing. […] MIC values corresponded to the first well with no visible growth. Quality control testing was performed on each day of testing with E. coli ATCC 25922, P. aeruginosa ATCC 27853, K. pneumoniae ATCC 700603 and BAA 1705, and A. baumannii NCTC 13304. MICs were interpreted using 2023 CLSI ([17]) and EUCAST ([18]) BPs.

[2] = tested on: KPC-producing Enterobacterales (KPC-CRE); test: organism not typed; format: cell-based
Protocol: as §1, §2

[3] = tested on: A. baumannii clinical isolates; test: Broth microdilution MIC, A. baumannii clinical isolates; format: cell-based, Acinetobacter baumannii; settings: for CLSI % Res / CLSI % Sus: CLSI BP; for CLSI % Res: for MEM-ANT3310 % at ≥16 µg/mL; for CLSI % Sus: for MEM-ANT3310 % inhibited at ≤8 µg/mL; for EUCAST % Res / EUCAST % Sus: EUCAST BP; for MIC50 / MIC90: Acinetobacter baumannii; for MIC50: read-out: MIC50; for MIC90: read-out: MIC90
Protocol: as §1, §2

[4] = tested on: carbapenem-resistant Acinetobacter baumannii (CRAB) clinical isolates; test: Broth microdilution MIC, CRAB isolates; format: cell-based; settings: for CLSI % Res / CLSI % Sus: CLSI BP; for CLSI % Res: for MEM-ANT3310 % at ≥16 µg/mL; for CLSI % Sus: for MEM-ANT3310 % inhibited at ≤8 µg/mL; for EUCAST % Res / EUCAST % Sus: EUCAST BP; for MIC50 / MIC90: Acinetobacter baumannii; for MIC50: read-out: MIC50; for MIC90: read-out: MIC90
Protocol: as §1, §2

[5] = 252 OXA-producing Enterobacterales, EUCAST BP
[6] = 180 KPC-producing Enterobacterales, EUCAST BP
[7] = 2018 Global collection, All A. baumannii, N 500
[8] = A. baumannii, one or both of the 2018/2019 collections
[9] = 2018 Global collection, CRAB (MEM MICs >4 µg/mL), N 363
[10] = 2018 Global collection, CRAB, N 363
[11] = 2019 Global collection, All A. baumannii, N 405
[12] = 2019 Global collection, CRAB (MEM MICs >4 µg/mL), N 340
[13] = 2019 Global collection, CRAB, N 340

With NCC[C@H](O)C(=O)N[C@@H]1C[C@H](N)[C@@H](O[C@H]2O[C@H](CN)[C@@H](O)[C@H](O)[C@H]2O)[C@H](O)[C@H]1O[C@H]1O[C@H](CO)[C@@H](O)[C@H](N)[C@H]1O [Amikacin, amikacin] the MIC50 [1] was 16 µg/mL (≈ 27.3 µM), the MIC90 [1] was over 64 µg/mL and the “CLSI % Res” value ([1]; 252 OXA-producing Enterobacterales, CLSI BP, for MEM-ANT3310 % at ≥16 µg/mL) was 32.1%. For the same compound, the “CLSI % Sus” value ([1]; 252 OXA-producing Enterobacterales, CLSI BP, for MEM-ANT3310 % inhibited at ≤8 µg/mL) was 59.5%, the “EUCAST % Res” value [1, 5] was 52.0% and the “EUCAST % Sus” value [1, 5] was 48.0%. For the same compound, the MIC50 [2] was 16 µg/mL (≈ 27.3 µM), the MIC90 [2] was 64 µg/mL (≈ 109 µM) and the “CLSI % Res” value ([2]; 180 KPC-producing Enterobacterales, CLSI BP, for MEM-ANT3310 % at ≥16 µg/mL) was 11.7%. The “CLSI % Sus” value ([2]; 180 KPC-producing Enterobacterales, CLSI BP, for MEM-ANT3310 % inhibited at ≤8 µg/mL) was 57.8%, the “EUCAST % Res” value [2, 6] was 54.4% and the “EUCAST % Sus” value [2, 6] was 45.6%. For the same compound, the “Number of isolates inhibited at MIC of 0.5 µg/mL” value [3, 7] was 2, the “Number of isolates inhibited at MIC of 1 µg/mL” value [3, 7] was 42 and the “Number of isolates inhibited at MIC of 2 µg/mL” value [3, 7] was 96. For the same compound, the “Number of isolates inhibited at MIC of 4 µg/mL” value [3, 7] was 33, the “Number of isolates inhibited at MIC of 8 µg/mL” value [3, 7] was 12 and the “Number of isolates inhibited at MIC of 16 µg/mL” value [3, 7] was 11. The “Number of isolates inhibited at MIC of 32 µg/mL” value [3, 7] was 13, the “Number of isolates inhibited at MIC of >32 µg/mL” value [3, 7] was 291 and the “CLSI % Res” value [3, 7] was 58.2%. The “CLSI % Sus” value [3, 7] was 39.2%, the “EUCAST % Res” value [3, 7] was 63% and the “EUCAST % Sus” value [3, 7] was 37%. It also gave an MIC50 [3, 7] of over 32 µg/mL, an MIC90 [3, 7] of over 32 µg/mL and an MIC90 [3, 8] of at least 32 µg/mL. For the same compound, the “Number of isolates inhibited at MIC of 0.5 µg/mL” value [4, 9] was 1, the “Number of isolates inhibited at MIC of 1 µg/mL” value [4, 9] was 9 and the “Number of isolates inhibited at MIC of 2 µg/mL” value [4, 9] was 25. The “Number of isolates inhibited at MIC of 4 µg/mL” value [4, 9] was 20, the “Number of isolates inhibited at MIC of 8 µg/mL” value [4, 9] was 5 and the “Number of isolates inhibited at MIC of 16 µg/mL” value [4, 9] was 10. For the same compound, the “Number of isolates inhibited at MIC of 32 µg/mL” value [4, 9] was 11, the “Number of isolates inhibited at MIC of >32 µg/mL” value [4, 9] was 282 and the “CLSI % Res” value [4, 10] was 77.7%. For the same compound, the “CLSI % Sus” value [4, 10] was 19.3%, the “EUCAST % Res” value [4, 10] was 83.5% and the “EUCAST % Sus” value [4, 10] was 16.5%. The MIC50 [4, 9] was over 32 µg/mL and the MIC90 [4, 9] was over 32 µg/mL.

With CN(C)[C@@H]1C(O)=C(C(N)=O)C(=O)[C@@]2(O)C(O)=C3C(=O)c4c(O)c(NC(=O)CN5CCCC5)cc(F)c4C[C@H]3C[C@@H]12 [Eravacycline, eravacycline] the MIC50 [1] was 1 µg/mL (≈ 1.79 µM), the MIC90 [1] was 2 µg/mL (≈ 3.58 µM) and the MIC50 [2] was 0.5 µg/mL (≈ 0.895 µM). For the same compound, the MIC90 [2] was 2 µg/mL (≈ 3.58 µM), the “Number of isolates inhibited at MIC of 0.25 µg/mL” value [3, 7] was 66 and the “Number of isolates inhibited at MIC of 0.5 µg/mL” value [3, 7] was 83. For the same compound, the “Number of isolates inhibited at MIC of 1 µg/mL” value [3, 7] was 194, the “Number of isolates inhibited at MIC of 2 µg/mL” value [3, 7] was 55 and the “Number of isolates inhibited at MIC of 4 µg/mL” value [3, 7] was 3. The “Number of isolates inhibited at MIC of ≤0.125 µg/mL” value [3, 7] was 99, the MIC50 [3, 7] was 1 µg/mL (≈ 1.79 µM) and the MIC90 [3, 7] was 2 µg/mL (≈ 3.58 µM). For the same compound, the MIC90 [3, 8] was 2 µg/mL (≈ 3.58 µM), the “Number of isolates inhibited at MIC of 0.25 µg/mL” value [4, 9] was 43 and the “Number of isolates inhibited at MIC of 0.5 µg/mL” value [4, 9] was 73. For the same compound, the “Number of isolates inhibited at MIC of 1 µg/mL” value [4, 9] was 186, the “Number of isolates inhibited at MIC of 2 µg/mL” value [4, 9] was 53 and the “Number of isolates inhibited at MIC of 4 µg/mL” value [4, 9] was 3. For the same compound, the “Number of isolates inhibited at MIC of ≤0.125 µg/mL” value [4, 9] was 5, the MIC50 [4, 9] was 1 µg/mL (≈ 1.79 µM) and the MIC90 [4, 9] was 2 µg/mL (≈ 3.58 µM).

C[C@H]1COc2c(N3CCN(C)CC3)c(F)cc3c(=O)c(C(=O)O)cn1c23 [Levofloxacin, levofloxacin] was tested, and the “Number of isolates inhibited at MIC of 0.5 µg/mL” value [3, 11] was 1, the “Number of isolates inhibited at MIC of 1 µg/mL” value [3, 11] was 1 and the “Number of isolates inhibited at MIC of 2 µg/mL” value [3, 11] was 10. The “Number of isolates inhibited at MIC of 4 µg/mL” value [3, 11] was 33, the “Number of isolates inhibited at MIC of 8 µg/mL” value [3, 11] was 96 and the “Number of isolates inhibited at MIC of 16 µg/mL” value [3, 11] was 99. For the same compound, the “CLSI % Res” value [3, 11] was 73.8%, the “CLSI % Sus” value [3, 11] was 18% and the “EUCAST % Res” value [3, 11] was 84.4%. For the same compound, the “EUCAST % Sus” value [3, 11] was 15.3%, the “Number of isolates inhibited at MIC of >16 µg/mL” value ([3]; 2019 Global collection, All A. baumannii, N 405, footnote c) was 104^c and the “Number of isolates inhibited at MIC of ≤0.25 µg/mL” value ([3]; 2019 Global collection, All A. baumannii, N 405, footnote d) was 61^d. The MIC50 [3, 11] was 16 µg/mL (≈ 44.3 µM), the MIC90 [3, 11] was over 16 µg/mL and the MIC90 [3, 8] was at least 32 µg/mL. For the same compound, the “Number of isolates inhibited at MIC of 2 µg/mL” value [4, 12] was 9, the “Number of isolates inhibited at MIC of 4 µg/mL” value [4, 12] was 29 and the “Number of isolates inhibited at MIC of 8 µg/mL” value [4, 12] was 92. For the same compound, the “Number of isolates inhibited at MIC of 16 µg/mL” value [4, 12] was 97, the “CLSI % Res” value [4, 13] was 86.2% and the “CLSI % Sus” value [4, 13] was 5.3%. For the same compound, the “EUCAST % Res” value [4, 13] was 97.3%, the “EUCAST % Sus” value [4, 13] was 2.7% and the “Number of isolates inhibited at MIC of >16 µg/mL” value ([4]; 2019 Global collection, CRAB, N 340, footnote c) was 104^c. The “Number of isolates inhibited at MIC of ≤0.25 µg/mL” value ([4]; 2019 Global collection, CRAB, N 340, footnote d) was 9^d, the MIC50 [4, 12] was 16 µg/mL (≈ 44.3 µM) and the MIC90 [4, 12] was over 16 µg/mL.
